# Measurements published in patent publication US10351519B2, “Sulfamate derivative compounds, processes for preparing them and their uses” (BIO-PHARM SOLUTIONS CO., LTD., priority 2016, dated 2019).
# Legend:
# Format in all cases: in vivo
# ICR mice [1] = assay: Tail-flick test; details: orally
# Description: To examine the pain relief effect of the sulfamate compounds, a tail-flick test was conducted, referring to Current Protocols in Neuroscience; Behavioral Neuroscience Unit 8.9.
# ICR mice (male, 25-30 g; Orient Bio, Korea) were habituated before test (in test room) for 1 hour. Animals were fasted 2 hr before administration of compounds. Each of the tested compound were orally administered at the 1˜3 dose, 10 ul/g, by bw (n=4-6/group). All compounds were dissolved in a vehicle of 30% (v/v) PEG 400 or 20% (v/v) Tween 80. The control group was treated the vehicle without compounds.
# After the administration of compounds, the mice tail were put on a tail-flick analgesia meter. To avoid tissue damage, maximal exposure time to pain stimuli was restricted to 15 seconds. The withdrawal latency was measured to the time to the point when each mouse responded. The relative values compared to the control (% control) were calculated.
# ICR mice [2] = assay: Writhing test (0.6% acetic acid); details: for ED50: Mus musculus, po
# Description: To examine the pain relief effect of the sulfamate compounds, a writhing test was conducted, referring to Fischer, L. G. et al. (2008).
# ICR mice (male, 24-28 g; Orient Bio, Korea) were habituated before test in test room for 1 hour. Animals were fasted 2 hr, before administration of compounds. Each of Compounds was orally administered at the three dose, 10 ul/g, by bodyweight (All compounds were dissolved in a vehicle of 30% (v/v) PEG 400 or 20% (v/v) Tween 80. The control group was treated with the vehicle without compounds.
# 0.25-2 hour after the administration of Compounds, 0.6% acetic acid at the dose of 10 ul/g, by bodyweight was injected into the mice. Animals were habituated in the cage for 5 min. 5 min after habituation, the number of writhes (abdominal constriction) was conted for 15 min, referring to Korzeniewska-Rybicka, I. et al. (1998) and compared with that of a control.
# ICR mice [3] = assay: Chemical induced seizure model (strychnine); details: intraperitoneal
# Description: Male ICR mice (purchased from Orient Bio Inc. Korea) of body weight 19-27 g were used for these studies. The test materials were administered intraperitoneal route in a volume of 10 ul/g weight. Pharmacological effects of all the test materials were evaluated to compared test groups (n=6) with a control group (n=6). Control group was administrated vehicle, only. The peak time was determined by administration test material's random dose for 0.5, 1, 2 hour. The time that the most protect was defined peak time and ED50 was determined by other dose administration at peak time. Strychnine was dissolved in 0.9% saline and administered intraperitoneally (i.p.) at its CD97 (convulsive dose 97%) the dose of strychnine that produced clonic seizures in 97% in a volume of 10 ul/g body weight. The animals were then transferred to observation cages and observed continuously for 30 min. Clonic seizure was elicited in approximately 95% of control group. Protection was defined as complete absence of a clonic seizure over the 30-min observation period. The time that the most protect was defined peak time and ED50 was determined by other dose administration at peak time. The effective dose of compound necessary to protect against seizures to 50% of controls (i.e. ED50) was determined by log probit analysis using Excel 2007 (Microsoft).
Structure (SMILES),tail-flick test Peak Time (ICR mice [1]),tail-flick test efficacy % (ICR mice [1]; 100 mg/kg),Writhing test(po) Peak Time (ICR mice [2]),ED50 (ICR mice [2]),"ED50 (ICR mice [3]; Mus musculus, ip, read-out: Strychnine test ED50)",Strychnine test Peak Time (ICR mice [3]),tail-flick test Dose (ICR mice [1])
"C[C@H](OS(N)(=O)=O)[C@@H](O)c1c(Cl)cccc1Cl [Example 7, (1S, 2S)-1-(2,6-dichlorophenyl)-1-hydroxypropan-2-yl sulfamate]",1~2 hr,100 (19.0%),0.5 h,69.6 mg/kg,75.8 mg/kg,0.5 h,
"C[C@@H](OS(N)(=O)=O)[C@H](O)c1c(Cl)cccc1Cl [Example 8, (1R, 2R)-1-(2,6-dichlorophenyl)-1-hydroxypropan-2-yl sulfamate]",,,0.25 h,50.6 mg/kg,,,>200 mg/kg
